Patent publication US10092575B2, “Substituted thiophene- and furan-fused azolopyrimidine-5-(6H)-one compounds” (DART NEUROSCIENCE (CAYMAN) LTD., priority 2012, dated 2018)

Each compound was assayed against human PDE1b enzyme (Homo sapiens (Human), UniProt Q01064) (assay: PDE1b inhibitory assay (IMAP TR-FRET)). Settings: not given.
Compound CCOc1ccc(Cn2c(=O)n3ncnc3c3c4c(sc32)COCC4)cc1 [Example 97, 6-(4-Ethoxybenzyl)-6,8,10,11-tetrahydro-5H-pyrano[4′,3′:4,5]thieno[3,2-e][1,2,4]triazolo[1,5-c]pyrimidin-5-one] has an EC50 of 1000 to 10000 nM. In the case of Cc1oc2c(c1C)c1ncnn1c(=O)n2Cc1ccc(Cl)cc1 [Example 79, 6-(4-Chlorobenzyl)-8,9-dimethylfuro[3,2-e][1,2,4]triazolo[1,5-c]pyrimidin-5(6H)-one], the EC50 is reported as 100 to 1000 nM. In the case of Cc1ccc(Cn2c(=O)n3ncnc3c3c4c(sc32)COCC4)cc1 [Example 88, 6-(4-Methylbenzyl)-6,8,10,11-tetrahydro-5H-pyrano[4′,3′:4,5]thieno[3,2-e][1,2,4]triazolo[1,5-c]pyrimidin-5-one], the EC50 is reported as 100 to 1000 nM. COc1ccc(Cn2c(=O)n3ncnc3c3cc(CN4CC(O)C4)sc32)c(F)c1 [Example 213, 6-(2-Fluoro-4-methoxybenzyl)-8-((3-hydroxyazetidin-1-yl)methyl)thieno[3,2-e][1,2,4]triazolo[1,5-c]pyrimidin-5(6H)-one] showed an EC50 of 100 to 1000 nM. With O=c1n(Cc2ccc(Cl)cc2)c2sc3c(c2c2ncnn12)CCOC3 [Example 87, 6-(4-Chlorobenzyl)-6,8,10,11-tetrahydro-5H-pyrano[4′,3′:4,5]thieno[3,2-e][1,2,4]triazolo[1,5-c]pyrimidin-5-one] the EC50 was 100 to 1000 nM. COc1ccc(Cn2c(=O)n3ncnc3c3c4c(sc32)COCC4)cc1F [Example 95, 6-(3-Fluoro-4-methoxybenzyl)-6,8,10,11-tetrahydro-5H-pyrano[4′,3′:4,5]thieno[3,2-e][1,2,4]triazolo[1,5-c]pyrimidin-5-one] gave an EC50 of 100 to 1000 nM. COc1ccc(Cn2c(=O)n3ncnc3c3cc(CN(C)C)sc32)cc1 [Example 30, 8-((Dimethylamino)methyl)-6-(4-methoxybenzyl)thieno[3,2-e][1,2,4]triazolo[1,5-c]pyrimidin-5(6H)-one] was tested, and the EC50 was 100 to 1000 nM. O=c1n(Cc2ccccc2Cl)c2sccc2c2ncnn12 [Example 1, 6-(2-Chlorobenzyl)thieno[3,2-e][1,2,4]triazolo[1,5-c]pyrimidin-5(6H)-one] was tested, and the EC50 was 1000 to 10000 nM. COc1ccc(Cn2c(=O)n3ncnc3c3c4c(sc32)CN(C(=O)C2CCNC2)CC4)cc1 (stereo not shown) [Example 181, 6-(4-Methoxybenzyl)-9-(pyrrolidine-3-carbonyl)-8,9,10,11-tetrahydropyrido[4′,3′:4,5]thieno[3,2-e][1,2,4]triazolo[1,5-c]pyrimidin-5(6H)-one] gave an EC50 of 100 to 1000 nM. With COc1ccc(Cn2c(=O)n3ncnc3c3c4c(sc32)NCCC4)cc1 [Example 221, 6-(4-Methoxybenzyl)-8,9,10,11-tetrahydropyrido[3′,2′:4,5]thieno[3,2-e][1,2,4]triazolo[1,5-c]pyrimidin-5(6H)-one] the EC50 was 100 to 1000 nM. For COc1ccc(Cn2c(=O)n3ncnc3c3c4c(sc32)CN(C(=O)C2CCN(C)C2)CC4)cc1 (stereo not shown) [Example 163, 6-(4-Methoxybenzyl)-9-(1-methylpyrrolidine-3-carbonyl)-8,9,10,11-tetrahydropyrido[4′,3′:4,5]thieno[3,2-e][1,2,4]triazolo[1,5-c]pyrimidin-5(6H)-one], the EC50 was 100 to 1000 nM. Compound COc1ccc(Cn2c(=O)n3ncnc3c3cc(CN4CCC5(C4)CC5(F)F)sc32)cc1 (stereo not shown) [Example 192, 8-((1,1-Difluoro-5-azaspiro[2.4]heptan-5-yl)methyl)-6-(4-methoxybenzyl)thieno[3,2-e][1,2,4]triazolo[1,5-c]pyrimidin-5(6H)-one] has an EC50 of 100 to 1000 nM. For COc1ccc(Cn2c(=O)n3ncnc3c3c4c(sc32)NCCC4)cc1OC [Example 100, 6-(3,4-Dimethoxybenzyl)-8,9,10,11-tetrahydropyrido[3′,2′:4,5]thieno[3,2-e][1,2,4]triazolo[1,5-c]pyrimidin-5(6H)-one], the EC50 was 1000 to 10000 nM. CCN(Cc1cc2c(s1)n(Cc1ccc(OC)cc1)c(=O)n1ncnc21)C1CCOC(C)(C)C1 (stereo not shown) [Example 196] was tested, and the EC50 was 1000 to 10000 nM.

Same assay, conditions: negative log of half-maximal molar inhibitory concentration; 200 nM FAM-cAMP; reported as ranges
For COc1ccc(Cn2c(=O)n3ncnc3c3c4c(sc32)CN(Cc2ccccn2)CC4)cc1 [Example 120, 6-(4-Methoxybenzyl)-9-(pyridin-2-ylmethyl)-8,9,10,11-tetrahydropyrido[4′,3′:4,5]thieno[3,2-e][1,2,4]triazolo[1,5-c]pyrimidin-5 (6H)-one], the “PDE1b (pEC50)” value was over 7. COc1ccc(Cn2c(=O)n3ncnc3c3cc(CN4CC5CC4CO5)sc32)cc1 (stereo not shown) [Example 37, 8-(2-Oxa-5-azabicyclo[2.2.1]heptan-5-ylmethyl)-6-(4-methoxybenzyl)thieno[3,2-e][1,2,4]triazolo[1,5-c]pyrimidin-5(6H)-one] was tested, and the “PDE1b (pEC50)” value was over 7. With COc1ccc(Cn2c(=O)n3ncnc3c3c4c(sc32)CN(C(=O)C2CCOC2)CC4)c(F)c1 (stereo not shown) [Example 167, 6-(2-Fluoro-4-methoxybenzyl)-9-(tetrahydrofuran-3-carbonyl)-8,9,10,11-tetrahydropyrido[4′,3′:4,5]thieno[3,2-e][1,2,4]triazolo[1,5-c]pyrimidin-5(6H)-one] the “PDE1b (pEC50)” value was over 7. In the case of COc1ccc(Cn2c(=O)n3ncnc3c3c4c(sc32)CN(CC2CC2)CC4)cc1 [Example 110, 9-(Cyclopropylmethyl)-6-(4-methoxybenzyl)-8,9,10,11-tetrahydropyrido[4′,3′:4,5]thieno[3,2-e][1,2,4]triazolo[1,5-c]pyrimidin-5 (6H)-one], the “PDE1b (pEC50)” value is reported as over 7. With COc1ccc(Cn2c(=O)n3ncnc3c3c4c(sc32)CN(Cc2ccncc2)CC4)cc1 [Example 121, 6-(4-Methoxybenzyl)-9-(pyridin-4-ylmethyl)-8,9,10,11-tetrahydropyrido[4′,3′:4,5]thieno[3,2-e][1,2,4]triazolo[1,5-c]pyrimidin-5(6H)-one] the “PDE1b (pEC50)” value was over 7. COc1ccc(Cn2c(=O)n3ncnc3c3c4c(sc32)CNCC4(F)F)cc1 [Example 219, 11,11-Difluoro-6-(4-methoxybenzyl)-8,9,10,11-tetrahydropyrido[4′,3′:4,5]thieno[3,2-e][1,2,4]triazolo[1,5-c]pyrimidin-5 (6H)-one] was tested, and the “PDE1b (pEC50)” value was over 7. In the case of COc1ccc(Cn2c(=O)n3ncnc3c3c4c(sc32)CN(S(C)(=O)=O)CC4)cc1 [Example 162, 6-(4-Methoxybenzyl)-9-(methylsulfonyl)-8,9,10,11-tetrahydropyrido[4′,3′:4,5]thieno[3,2-e][1,2,4]triazolo[1,5-c]pyrimidin-5(6H)-one], the “PDE1b (pEC50)” value is reported as over 7. With Cc1csc2c1c1ncnn1c(=O)n2Cc1ccc(-c2ccccc2)cc1 [Example 7, 6-([1,1′-Biphenyl]-4-ylmethyl)-9-methylthieno[3,2-e][1,2,4]triazolo[1,5-c]pyrimidin-5(6H)-one] the “PDE1b (pEC50)” value was under 5. With COc1ccc(Cn2c(=O)n3ncnc3c3cc(CN4CCN(c5ccccc5F)CC4)sc32)cc1 [Example 186, 8-((4-(2-Fluorophenyl)piperazin-1-yl)methyl)-6-(4-methoxybenzyl)thieno[3,2-e][1,2,4]triazolo[1,5-c]pyrimidin-5(6H)-one] the “PDE1b (pEC50)” value was over 7. For COc1ccc(Cn2c(=O)n3ncnc3c3c4c(sc32)CN(CC2CCOC2)CC4)cc1 (stereo not shown) [Example 113, 6-(4-Methoxybenzyl)-9-((tetrahydrofuran-3-yl)methyl)-8,9,10,11-tetrahydropyrido[4′,3′:4,5]thieno[3,2-e][1,2,4]triazolo[1,5-c]pyrimidin-5(6H)-one], the “PDE1b (pEC50)” value was over 7. With O=c1n(Cc2ccc(Cl)cc2F)c2sc3c(c2c2ncnn12)CCN(Cc1ccccn1)C3 [Example 130, 6-(4-Chloro-2-fluorobenzyl)-9-(pyridin-2-ylmethyl)-8,9,10,11-tetrahydropyrido[4′,3′:4,5]thieno[3,2-e][1,2,4]triazolo[1,5-c]pyrimidin-5 (6H)-one] the “PDE1b (pEC50)” value was over 7. With COc1ccc(Cn2c(=O)n3ncnc3c3c4c(sc32)CN(Cc2scnc2C)CC4)cc1 [Example 123] the “PDE1b (pEC50)” value was over 7. In the case of COc1ccc(Cn2c(=O)n3ncnc3c3c4c(sc32)CCN(CC2CCOCC2)C4)cc1 [Example 216, 6-(4-Methoxybenzyl)-10-((tetrahydro-2H-pyran-4-yl)methyl)-8,9,10,11-tetrahydropyrido[3′,4′:4,5]thieno[3,2-e][1,2,4]triazolo[1,5-c]pyrimidin-5(6H)-one], the “PDE1b (pEC50)” value is reported as under 5. In the case of COc1ccc(Cn2c(=O)n3ncnc3c3c(C)c(CNCC4(C)COC4)sc32)cc1 [Example 50, 6-(4-Methoxybenzyl)-9-methyl-8-((((3-methyloxetan-3-yl)methyl)amino)methyl)thieno[3,2-e][1,2,4]triazolo[1,5-c]pyrimidin-5(6H)-one], the “PDE1b (pEC50)” value is reported as over 7. COc1ccc(Cn2c(=O)n3ncnc3c3c4c(sc32)N(CC2CCCOC2)CCC4)cc1 (stereo not shown) [Example 149, 6-(4-Methoxybenzyl)-8-((tetrahydro-2H-pyran-3-yl)methyl)-8,9,10,11-tetrahydropyrido[3′,2′:4,5]thieno[3,2-e][1,2,4]triazolo[1,5-c]pyrimidin-5(6H)-one] was tested, and the “PDE1b (pEC50)” value was over 7. For COc1ccc(Cn2c(=O)n3ncnc3c3c(CNCC4CCOCC4)csc32)cc1 [Example 203, 6-(4-Methoxybenzyl)-9-((((tetrahydro-2H-pyran-4-yl)methyl)amino)methyl)thieno[3,2-e][1,2,4]triazolo[1,5-c]pyrimidin-5(6H)-one], the “PDE1b (pEC50)” value was over 7. COc1ccc(Cn2c(=O)n3ncnc3c3c4c(sc32)CN(Cc2ccc(F)cc2)CC4)cc1 [Example 127, 9-(4-Fluorobenzyl)-6-(4-methoxybenzyl)-8,9,10,11-tetrahydropyrido[4′,3′:4,5]thieno[3,2-e][1,2,4]triazolo[1,5-c]pyrimidin-5(6H)-one] was tested, and the “PDE1b (pEC50)” value was over 7. COc1ccc(Cn2c(=O)n3ncnc3c3cc(CN4CCC(N5CCOCC5)CC4)sc32)cc1 [Example 191] was tested, and the “PDE1b (pEC50)” value was over 7. In the case of COc1ccc(Cn2c(=O)n3ncnc3c3c4c(sc32)CNCCC4)cc1 [Example 217, 6-(4-Methoxybenzyl)-6,8,9,10,11,12-hexahydro-5H-[1,2,4]triazolo[1″,5″:1′,6′]pyrimido[5′,4′:4,5]thieno[2,3-c]azepin-5-one], the “PDE1b (pEC50)” value is reported as over 7. With COc1ccc(Cn2c(=O)n3ncnc3c3c(C)c(CN4CCOC(C)(C)C4)sc32)cc1 [Example 69, 8-((2,2-Dimethylmorpholino)methyl)-6-(4-methoxybenzyl)-9-methylthieno[3,2-e][1,2,4]triazolo[1,5-c]pyrimidin-5(6H)-one] the “PDE1b (pEC50)” value was over 7.
